Data reported in patent US10597388B2, “Pyridazinone herbicides” (FMC CORPORATION, priority 2014, dated 2020).

How the values were obtained:
Format in all cases: in vivo
[1] = system: blackgrass (Alopecurus myosuroides); assay: Test A greenhouse herbicide test, postemergence; details: for Plant response rating, Blackgrass: 125 g ai/ha, 0 to 100 scale where 0 is no effect and 100 is complete control; for Blackgrass plant response rating: 500 g ai/ha, 0 to 100 scale, 0 is no effect, 100 is complete control
How it was run: (§1)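 Plants grown in loam soil/sand blend pots were treated postemergence at 2 to 10 cm height, one- to two-leaf stage, with formulated test chemicals. After approximately 10 d in a greenhouse, injury was rated visually against untreated controls on a 0 to 100 scale (0 no effect, 100 complete control).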

[2] = system: galium (catchweed bedstraw, Galium aparine); assay: Test A greenhouse herbicide test, postemergence; details: for Plant response rating, Galium: 125 g ai/ha, 0 to 100 scale where 0 is no effect and 100 is complete control; for Galium plant response rating: 500 g ai/ha, 0 to 100 scale, 0 is no effect, 100 is complete control
How it was run: as §1

[3] = system: barnyardgrass (Echinochloa crus-galli); assay: Test B flooded paddy test; details: 250 g ai/ha, Flood; visual rating on scale of 0 to 100 where 0 is no effect and 100 is complete control; 13 to 15 d after treatment
How it was run: (§2)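 Plants at the 2-leaf stage were flooded to 3 cm above soil, and test compounds were applied directly into the paddy water, which was held at that depth throughout. After 13 to 15 d in a greenhouse, injury was rated visually against untreated controls on a 0–100 scale (0 no effect, 100 complete control).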

[4] = system: ducksalad (Heteranthera limosa); assay: Test B flooded paddy test; details: 250 g ai/ha, Flood; visual rating on scale of 0 to 100 where 0 is no effect and 100 is complete control; 13 to 15 d after treatment
How it was run: as §2

rice (Oryza sativa) = assay: Test B flooded paddy test; details: 250 g ai/ha, Flood; visual rating on scale of 0 to 100 where 0 is no effect and 100 is complete control; 13 to 15 d after treatment
How it was run: as §2

[5] = system: sedge, umbrella (small-flower umbrella sedge, Cyperus difformis); assay: Test B flooded paddy test; details: 250 g ai/ha, Flood; visual rating on scale of 0 to 100 where 0 is no effect and 100 is complete control; 13 to 15 d after treatment
How it was run: as §2

[6] = system: nutsedge, yellow (yellow nutsedge, Cyperus esculentus); assay: Test C greenhouse herbicide test, pre- and postemergence
Text: (§3) Seeds of plant species selected from blackgrass (Alopecurus myosuroides), ryegrass, Italian (Italian ryegrass, Lolium multiflorum), wheat (winter wheat, Triticum aestivum), galium (catchweed bedstraw, Galium aparine), corn (Zea mays), large crabgrass, large (large crabgrass, Digitaria sanguinalis), foxtail, giant (giant foxtail, Setaria faberii), johnsongrass (Sorghum halepense), lambsquarters (Chenopodium album), morningglory (Ipomoea coccinea), nutsedge, yellow (yellow nutsedge, Cyperus esculentus), pigweed (Amaranthus retroflexus), ragweed (common ragweed, Ambrosia elatior), soybean (Glycine max), barnyardgrass (Echinochloa crus-galli), oilseed rape (Brassica napus), waterhemp (common waterhemp, Amaranthus rudis), and velvetleaf (Abutilon theophrasti) were planted into a blend of loam soil and sand and treated preemergence with test chemicals formulated in a non-phytotoxic solvent mixture which included a surfactant.
(§4) At the same time, plants selected from these crop and weed species and also chickweed (common chickweed, Stellaria media), kochia (Kochia scoparia), and oat, wild (wild oat, Avena fatua), were planted in pots containing Redi-Earth® planting medium (Scotts Company, 14111 Scottslawn Road, Marysville, Ohio 43041) comprising spaghnum peat moss, vermiculite, wetting agent and starter nutrients and treated with postemergence applications of test chemicals formulated in the same manner. Plants ranged in height from 2 to 18 cm (1- to 4-leaf stage) for postemergence treatments. Treated plants and controls were maintained in a greenhouse for 13 to 15 d, after which time all species were compared to controls and visually evaluated. Plant response ratings, summarized in Table C, are based on a scale of 0 to 100 where 0 is no effect and 100 is complete control. A dash (-) response means no test result.

soybean (Glycine max) = assay: as above
Text: as §3, §4

[7] = system: johnsongrass (Sorghum halepense); assay: as above
Text: as §3, §4

[8] = system: chickweed (common chickweed, Stellaria media); assay: Test C greenhouse herbicide test, postemergence
How it was run: (§5)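 Visual injury scores (0–100, where 100 means complete control) were assigned 13 to 15 d after postemergence application, by comparison with untreated plants. Treated seedlings stood 2 to 18 cm tall, at the 1- to 4-leaf stage.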

[9] = system: oat, wild (wild oat, Avena fatua); assay: Test C greenhouse herbicide test, postemergence
How it was run: as §5

kochia (Kochia scoparia) = assay: Test C greenhouse herbicide test, postemergence
How it was run: as §5

[10] = Postemergence, 31 g ai/ha, 0 to 100 scale (0 no effect, 100 complete control)
[11] = Postemergence, 125 g ai/ha, scale 0 to 100, 0 is no effect, 100 is complete control
[12] = Postemergence, 250 g ai/ha, scale 0 to 100, 0 no effect, 100 complete control, 13 to 15 d
[13] = Preemergence, 31 g ai/ha, scale 0 to 100, 0 is no effect, 100 is complete control
[14] = Preemergence, 62 g ai/ha, scale 0 to 100, 0 is no effect, 100 is complete control
[15] = Preemergence, 125 g ai/ha, scale 0 to 100, 0 is no effect, 100 is complete control
[16] = Preemergence, 250 g ai/ha, scale 0 to 100, 0 no effect, 100 complete control
[17] = postemergence, 62 g ai/ha, scale 0 to 100, 0 no effect, 100 complete control

Cc1ccc2ccccc2c1-c1c(OC(=O)OC(C)C)c(C)nn(C)c1=O [Compound 72]
Plant response rating, Blackgrass [1]: 70
Blackgrass plant response rating [1]: 90
Plant response rating, Galium [2]: 90
Galium plant response rating [2]: 100
Plant response rating, Barnyardgrass [3]: 0
Plant response rating, Ducksalad [4]: 0
Plant response rating, Rice (rice (Oryza sativa)): 0
Plant response rating, Sedge, Umbrella [5]: 0
Nutsedge, Yellow plant response rating [6, 10]: 30
Plant response rating, Nutsedge, Yellow [6, 11]: 70
Plant response rating, Nutsedge, Yellow [6, 12]: 85
Plant response rating, Nutsedge, Yellow [6, 13]: 10
Plant response rating, Nutsedge, Yellow [6, 14]: 10
Plant response rating, Nutsedge, Yellow [6, 15]: 60
Nutsedge, Yellow plant response rating [6, 16]: 70
Nutsedge, Yellow plant response rating [6, 17]: 60
Soybean plant response rating (soybean (Glycine max); [10]): 10
Plant response rating, Soybean (soybean (Glycine max); [11]): 15
Plant response rating, Soybean (soybean (Glycine max); [12]): 30
Plant response rating, Soybean (soybean (Glycine max); [13]): 80
Plant response rating, Soybean (soybean (Glycine max); [14]): 0
Plant response rating, Soybean (soybean (Glycine max); [15]): 0
Soybean plant response rating (soybean (Glycine max); [16]): 0
Soybean plant response rating (soybean (Glycine max); [17]): 15
Johnsongrass plant response rating [7, 10]: 5
Plant response rating, Johnsongrass [7, 11]: 5
Plant response rating, Johnsongrass [7, 12]: 45
Plant response rating, Johnsongrass [7, 13]: 0
Plant response rating, Johnsongrass [7, 14]: 25
Plant response rating, Johnsongrass [7, 15]: 80
Johnsongrass plant response rating [7, 16]: 85
Johnsongrass plant response rating [7, 17]: 5
Chickweed plant response rating [8, 10]: 90
Plant response rating, Chickweed [8, 11]: 90
Plant response rating, Chickweed [8, 12]: 90
Chickweed plant response rating [8, 17]: 90
Oat, Wild plant response rating [9, 10]: 85
Plant response rating, Oat, Wild [9, 11]: 90
Plant response rating, Oat, Wild [9, 12]: 95
Oat, Wild plant response rating [9, 17]: 95
Kochia plant response rating (kochia (Kochia scoparia); [10]): 60
Plant response rating, Kochia (kochia (Kochia scoparia); [11]): 90
Plant response rating, Kochia (kochia (Kochia scoparia); [12]): 90
Kochia plant response rating (kochia (Kochia scoparia); [17]): 85

Cc1nn(C)c(=O)c(-c2ccc(Br)c3ccccc23)c1O [Compound 75]
Plant response rating, Blackgrass [1]: 50
Blackgrass plant response rating [1]: 70
Plant response rating, Galium [2]: 90
Galium plant response rating [2]: 100
Plant response rating, Barnyardgrass [3]: 0
Plant response rating, Ducksalad [4]: 0
Plant response rating, Rice (rice (Oryza sativa)): 15
Plant response rating, Sedge, Umbrella [5]: 0
Nutsedge, Yellow plant response rating [6, 10]: 25
Plant response rating, Nutsedge, Yellow [6, 11]: 50
Plant response rating, Nutsedge, Yellow [6, 12]: 70
Plant response rating, Nutsedge, Yellow [6, 13]: 15
Plant response rating, Nutsedge, Yellow [6, 14]: 40
Plant response rating, Nutsedge, Yellow [6, 15]: 65
Nutsedge, Yellow plant response rating [6, 16]: 75
Nutsedge, Yellow plant response rating [6, 17]: 20
Soybean plant response rating (soybean (Glycine max); [10]): 20
Plant response rating, Soybean (soybean (Glycine max); [11]): 35
Plant response rating, Soybean (soybean (Glycine max); [12]): 10
Plant response rating, Soybean (soybean (Glycine max); [13]): 0
Plant response rating, Soybean (soybean (Glycine max); [14]): 20
Plant response rating, Soybean (soybean (Glycine max); [15]): 45
Soybean plant response rating (soybean (Glycine max); [16]): 55
Soybean plant response rating (soybean (Glycine max); [17]): 35
Johnsongrass plant response rating [7, 10]: 5
Plant response rating, Johnsongrass [7, 11]: 5
Plant response rating, Johnsongrass [7, 12]: 10
Plant response rating, Johnsongrass [7, 13]: 0
Plant response rating, Johnsongrass [7, 14]: 20
Plant response rating, Johnsongrass [7, 15]: 20
Johnsongrass plant response rating [7, 16]: 10
Johnsongrass plant response rating [7, 17]: 5
Chickweed plant response rating [8, 10]: 95
Plant response rating, Chickweed [8, 11]: 95
Plant response rating, Chickweed [8, 12]: 95
Chickweed plant response rating [8, 17]: 90
Oat, Wild plant response rating [9, 10]: 40
Plant response rating, Oat, Wild [9, 11]: 40
Plant response rating, Oat, Wild [9, 12]: 35
Oat, Wild plant response rating [9, 17]: 35
Kochia plant response rating (kochia (Kochia scoparia); [10]): 90
Plant response rating, Kochia (kochia (Kochia scoparia); [11]): 95
Plant response rating, Kochia (kochia (Kochia scoparia); [12]): 95
Kochia plant response rating (kochia (Kochia scoparia); [17]): 85

Cc1ccc2sc(Br)c(-c3c(O)c(C)nn(C)c3=O)c2c1 [Compound 79]
Plant response rating, Blackgrass [1]: 70
Blackgrass plant response rating [1]: 80
Plant response rating, Galium [2]: 90
Galium plant response rating [2]: 90
Plant response rating, Barnyardgrass [3]: 0
Plant response rating, Ducksalad [4]: 0
Plant response rating, Rice (rice (Oryza sativa)): 0
Plant response rating, Sedge, Umbrella [5]: 0
Nutsedge, Yellow plant response rating [6, 10]: 85
Plant response rating, Nutsedge, Yellow [6, 11]: 80
Plant response rating, Nutsedge, Yellow [6, 12]: 85
Plant response rating, Nutsedge, Yellow [6, 13]: 25
Plant response rating, Nutsedge, Yellow [6, 14]: 45
Plant response rating, Nutsedge, Yellow [6, 15]: 90
Nutsedge, Yellow plant response rating [6, 16]: 90
Nutsedge, Yellow plant response rating [6, 17]: 80
Soybean plant response rating (soybean (Glycine max); [10]): 0
Plant response rating, Soybean (soybean (Glycine max); [11]): 5
Plant response rating, Soybean (soybean (Glycine max); [12]): 5
Plant response rating, Soybean (soybean (Glycine max); [13]): 0
Plant response rating, Soybean (soybean (Glycine max); [14]): 0
Plant response rating, Soybean (soybean (Glycine max); [15]): 5
Soybean plant response rating (soybean (Glycine max); [16]): 0
Soybean plant response rating (soybean (Glycine max); [17]): 0
Johnsongrass plant response rating [7, 10]: 5
Plant response rating, Johnsongrass [7, 11]: 10
Plant response rating, Johnsongrass [7, 12]: 10
Plant response rating, Johnsongrass [7, 13]: 10
Plant response rating, Johnsongrass [7, 14]: 35
Plant response rating, Johnsongrass [7, 15]: 40
Johnsongrass plant response rating [7, 16]: 30
Johnsongrass plant response rating [7, 17]: 5
Chickweed plant response rating [8, 10]: 90
Plant response rating, Chickweed [8, 11]: 90
Plant response rating, Chickweed [8, 12]: 90
Chickweed plant response rating [8, 17]: 90
Oat, Wild plant response rating [9, 10]: 50
Plant response rating, Oat, Wild [9, 11]: 85
Plant response rating, Oat, Wild [9, 12]: 90
Oat, Wild plant response rating [9, 17]: 60
Kochia plant response rating (kochia (Kochia scoparia); [10]): 50
Plant response rating, Kochia (kochia (Kochia scoparia); [11]): 90
Plant response rating, Kochia (kochia (Kochia scoparia); [12]): 90
Kochia plant response rating (kochia (Kochia scoparia); [17]): 90

Cc1sc2ccccc2c1-c1c(O)c(Cl)nn(C)c1=O [Compound 89]
Plant response rating, Blackgrass [1]: 30
Blackgrass plant response rating [1]: 60
Plant response rating, Galium [2]: 90
Galium plant response rating [2]: 90
Plant response rating, Barnyardgrass [3]: 0
Plant response rating, Ducksalad [4]: 65
Plant response rating, Rice (rice (Oryza sativa)): 0
Plant response rating, Sedge, Umbrella [5]: 40
Plant response rating, Nutsedge, Yellow [6, 11]: 70
Plant response rating, Nutsedge, Yellow [6, 12]: 75
Plant response rating, Nutsedge, Yellow [6, 13]: 60
Plant response rating, Nutsedge, Yellow [6, 14]: 75
Plant response rating, Nutsedge, Yellow [6, 15]: 80
Nutsedge, Yellow plant response rating [6, 16]: 90
Nutsedge, Yellow plant response rating [6, 17]: 60
Plant response rating, Soybean (soybean (Glycine max); [11]): 0
Plant response rating, Soybean (soybean (Glycine max); [12]): 0
Plant response rating, Soybean (soybean (Glycine max); [13]): 0
Plant response rating, Soybean (soybean (Glycine max); [14]): 0
Plant response rating, Soybean (soybean (Glycine max); [15]): 0
Soybean plant response rating (soybean (Glycine max); [16]): 5
Soybean plant response rating (soybean (Glycine max); [17]): 0
Plant response rating, Johnsongrass [7, 11]: 0
Plant response rating, Johnsongrass [7, 12]: 5
Plant response rating, Johnsongrass [7, 13]: 0
Plant response rating, Johnsongrass [7, 14]: 75
Plant response rating, Johnsongrass [7, 15]: 0
Johnsongrass plant response rating [7, 16]: 5
Johnsongrass plant response rating [7, 17]: 0
Chickweed plant response rating [8, 10]: 90
Plant response rating, Chickweed [8, 11]: 100
Plant response rating, Chickweed [8, 12]: 100
Chickweed plant response rating [8, 17]: 95
Plant response rating, Oat, Wild [9, 11]: 30
Plant response rating, Oat, Wild [9, 12]: 40
Oat, Wild plant response rating [9, 17]: 10
Plant response rating, Kochia (kochia (Kochia scoparia); [11]): 90
Plant response rating, Kochia (kochia (Kochia scoparia); [12]): 100
Kochia plant response rating (kochia (Kochia scoparia); [17]): 90
